Patent publication US10472664B2, “Screening assay for identification of poly(ADP-ribose) polymerase 1 inhibitors” (Institute for Cancer Research, priority 2014, dated 2019)

System: PARP-1
Assay: PARP-1 regulation by purified histones in vitro, pADPr detected on Western blot
Format: biochemical
Details: PARP-1 pre-incubated with purified histone, then mixed with NAD; FIG. 2A, 2B
Method: FIGS. 2A-D show PARP-1 protein regulation by histones (poly(ADP-ribose) polymer is denoted “pADPr”). […] Full-length PARP-1 protein (left) and PARP-1 protein cleaved by Caspase 3 (right) were pre-incubated with randomly broken DNA or core histone H4, followed by mixing with NAD. The products of PARP-1 enzymatic activity, poly(ADP-ribose), were detected after PAGE on a Western blot using the anti-pADPr antibody. […] PARP-1 was pre-incubated with different coregulators, followed by mixing with NAD. The amount of the product of PARP-1 enzymatic activity, poly(ADP-ribose), was detected after PAGE on a Western blot using the anti-Change(s) pADPr antibody and quantified independently using the Image Quant.
The two pathways described in Example 1 can be separated in vitro by cleaving Zn-fingers from the PARP-1 protein using caspase 3. This isoform of PARP-1 can be still activated by H4, but not by DNA (FIG. 2, panel A). […] Although histones H2Av and H2AvSE inhibit PARP-1 by themselves, when contained inside of a nucleosome they facilitate PARP-1 interaction with H4 and thereby activate PARP-1 (FIG. 2 panel D). […] Without intending to be limited to any particular theory or mechanism of action, it is believed that interactions with histones play an important for PARP-1 activation in vivo in genotoxic stress response and in transcriptional pathways.

## H2Av: purified histone variant H2Av
  PARP-1 activation (poly(ADP-ribose) production): does not activate PARP-1
